How the values were obtained:
HsATC = biological target: T1, HsATC (Homo sapiens, UniProt P27708); assay: HsATC activity assay; assay type: biochemical; conditions: in vitro activity assay, 10 mM L-aspartate, 5 mM carbamoyl phosphate; read-out: HsATC IC50
T1 construct: ATCase domain of CAD; made in house; host or cells: E. coli BL21 star
T1 sequence (P27708 1918-2225 limits assumed): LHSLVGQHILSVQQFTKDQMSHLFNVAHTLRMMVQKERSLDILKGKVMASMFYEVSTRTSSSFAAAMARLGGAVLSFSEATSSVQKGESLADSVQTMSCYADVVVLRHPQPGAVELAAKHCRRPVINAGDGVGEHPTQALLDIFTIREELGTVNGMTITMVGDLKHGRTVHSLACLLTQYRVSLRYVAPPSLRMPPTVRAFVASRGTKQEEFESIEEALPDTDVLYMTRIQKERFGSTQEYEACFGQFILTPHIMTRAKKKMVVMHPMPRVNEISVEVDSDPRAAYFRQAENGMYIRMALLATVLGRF
Description: 417100μL of stop mix (two volumes of Antipyrine (26.5 mM 2,3-Dimethyl-1-phenyl-3-pyrazolin-5-
418one in 50% (v/v) sulfuric acid) and one volume of 2,3-Butanedione monoxime (80 mM 2,3-
419Butanedione monoxime in 5% (v/v) acetic acid). After plates were sealed with transparent sealing
(§1) 420tape to prevent evaporation and incubated overnight in the dark place at room temperature. After
421incubation, the plates were heated at 95 °C for 15 min in dark place, and kept for 30 min before
422measuring at 466 nm suing a Synergy H1 Hybrid Reader (BioTek). Analyses were performed using
423Microsoft Excel and Graph Pad Prism.
424HsATC activity assay. The enzymatic assay was performed as described herein above for
425enzymatic assay of PfATC with minor modifications. Briefly, the reaction was carried out at room
426temperature in a total volume of 150 μl of 10 mM L-aspartate and 5 mM carbamoyl phosphate
427saturated substrate solution in 50 mM Tris-Acetate buffer pH 8.3. hsATC was pre-incubated with
428inhibitor and L-Asp for 10 min at room temperature on a shaker. The reaction was initiated by
429adding CP and stopped after 5 min with […] color mix. Then the plate was covered by sealing
(§2) 430tape and kept in dark place at room temperature and then heated to 95 °C for 15min in dark and kept
431the plate in the dark for another 30 min before measuring the absorbance at 466 nm suing a Synergy
432H1 Hybrid Reader (BioTek). […]

P. falciparum 3D7 = assay: Growth-inhibition assay of P. falciparum (SYBR Green I); assay type: cell-based, Plasmodium falciparum; conditions: P. falciparum 3D7, 96 h; read-out: EC50 against blood stage 3D7 cultures
Description: 488Cell culture and growth-inhibition assay of P. falciparum. P. falciparum 3D7 parasites
489(Wellcome Trust Dundee) were maintained in continuous culture at 37 °C and an atmosphere
490consisting of 90% N 2, 5% O2, and 5% CO2 as described previously 30 with modifications.31
491Parasites were maintained in 25 mM 4-(2-hydroxyethyl)-1-piperazineethanesulfonic acid (HEPES)
492and 11.9 mM sodium bicarbonate buffered RPMI 1640 medium supplemented with D-glucose
493(11 mM), hypoxanthine, AlbuMAX-I (0.5% w/v), and 10 µg/mL gentamicin. 0+ blood was
494provided by “Hospital Novo Atibaia” (Brazil) in agreement with the ethics committee at ICB-USP.
495Compounds were tested for their inhibitory effect against P. falciparum 3D7 conducting SYBR
496Green I (Invitrogen) drug assays as reported. 32, 33 Briefly, two-fold serial dilutions of compounds
497were prepared in 96-well plates starting from 100 and 20 µM in technical triplicate and incubated
498for 96 h under normal growth conditions using an initial parasitemia of 0.5% and a hematocrit of
4992% in a volume of 100 µL per well. Parasite proliferation was measured by quantifying DNA via
500SYBR Green I emitted fluorescence in the wells after addition of 100 µL lysis buffer supplemented
501with SYBR Green I (0.02% v/v) and incubation for 1 h at room temperature in the dark.
502Fluorescence was quantified using a CLARIOstar plate reader (BMG Labtech, Germany) at
503excitation and emission wavelength bands of 485 (± 9) and 530 (± 12) nm, respectively. Focal and
504gain adjustment was performed using the negative controls (highest expected fluorescence signal).
505Data was acquired via the CLARIOstar (V5.20) and MARS software, manually normalized, and
506plotted using the nonlinear regression curve fit implemented in GraphPad Prism as described below
507in more detail. Non-treated parasites, highest solvent concentration on parasites, and highest drug
508concentration in medium were used as controls for maximal growth, solvent control, and native
509drug fluorescence, respectively.
511Nonlinear regression fit and analysis of dose-response drug assays. Nonlinear regression as
512implemented in GraphPad Prism 8.4.3 (log(inhibitor) vs. response – Variable slope (four
513parameters)) was used to fit the measured data to interpolate the IC 50 value from the curve. No
514specific model was applied. Data was pre-processed by min-max-scaling according to the
517where y is the fluorescence signal in each well, y minimum the background fluorescence, and ymaximum
518the highest measured fluorescence signal in the untreated wells. Drug concentrations (in µM) were
519transformed to the log(10)of the values. Means of each independent experiment were plotted as
520individual values, and the SD of the mean from the means shown as error bars. The test for
521homoscedasticity was performed to confirm if no weighting of values was appropriate.

PfATC = PfATC (Plasmodium falciparum, UniProt A0A5K1K910); assay: biochemical; conditions: in vitro activity assay, PfATC 50 nM, 2 mM CP, 1 mM aspartate; read-out: PfATC IC50
Description: Following washing with Lysis buffer
Excess imidazole was removed and the His-tag was cleaved
400Then, the sample was loaded onto a 5 ml HiTrap SP HP column (GE Healthcare, USA) and
410PfATC activity assay. Enzymatic reactions were performed in a total volume of 150 µL in 50 mM
Small-molecule dose-response curves were
The reactions were initiated by adding CP and quenched after 10 min with
After plates were sealed with transparent sealing
as §1
Analyses were performed using
The enzymatic assay was performed as described herein above for
Briefly, the reaction was carried out at room
The reaction was initiated by
Then the plate was covered by sealing
as §2

malarial parasite = system: malarial parasite; set-up: method as in PMID 32129597; conditions: cited from earlier work

Chain of PfATC (A0A5K1K910 entry or part of it): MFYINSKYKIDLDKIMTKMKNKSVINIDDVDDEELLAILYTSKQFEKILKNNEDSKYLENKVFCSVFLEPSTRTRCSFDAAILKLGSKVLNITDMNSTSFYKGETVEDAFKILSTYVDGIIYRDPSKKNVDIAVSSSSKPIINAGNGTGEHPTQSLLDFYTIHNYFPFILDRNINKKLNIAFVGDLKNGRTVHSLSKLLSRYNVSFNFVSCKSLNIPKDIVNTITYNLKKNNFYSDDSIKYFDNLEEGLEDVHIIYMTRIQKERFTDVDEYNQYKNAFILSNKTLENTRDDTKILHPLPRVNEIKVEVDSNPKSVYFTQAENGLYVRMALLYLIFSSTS

Compound	IC50 (HsATC)	EC50 (P. falciparum 3D7)	IC50 (PfATC)	inhibitory effects in ex vivo experiments (malarial parasite)
CC(C)CCNc1sc(-c2ccccc2)cc1C(=O)NCCc1ccc(O)cc1 [BDA-19]	678 nM	2330 nM	4070 nM	
CC(C)(C)OC(=O)Nc1sc(-c2ccccc2)cc1C(=O)NCCc1ccc(C(F)(F)F)cc1 [BDA-21]	620 nM	2420 nM	554 nM	
CC(C)(C)OC(=O)Nc1sc(-c2ccccc2)cc1C(=O)NCCc1ccc(Br)cc1 [BDA-22]	573 nM	2890 nM	473 nM	
COC(=O)c1cc(-c2ccc3c(c2)OCCO3)sc1NC(=O)OC(C)(C)C [BDA-69]	1030 nM		1050 nM	
N#CC1(C(=O)Nc2sc(-c3ccccc3)cc2C(=O)NCCc2ccc(O)cc2)CC1 [BDA-70]	556 nM		876 nM	
O=C(O)C[C@H](NC(=O)CP(=O)(O)O)C(=O)O [PALA, N-(phosphonoacetyl)-L-aspartate]				no inhibitory effects

The next lines start with results.

IC50 (HsATC)	EC50 (P. falciparum 3D7)	IC50 (PfATC)	Compound	inhibitory effects in ex vivo experiments (malarial parasite)
870 nM	1960 nM	6080 nM	CC(C)(C)OC(=O)Nc1sc(-c2ccccc2)cc1C(=O)NCC(O)c1ccccc1 (stereo not drawn) [BDA-16]	
259 nM	1850 nM	1330 nM	COc1ccccc1CCNC(=O)c1cc(-c2ccccc2)sc1NC(=O)OC(C)(C)C [BDA-18]	
764 nM		1290 nM	COC(=O)c1c(N)sc2c1CCC(c1ccccc1)C2 (stereo not drawn) [BDA-66]	
1010 nM		1360 nM	COC(=O)c1c(NC(=O)OC(C)(C)C)sc2c1CCCC2 [BDA-67]	

Source: publication PMC9585585, “Discovery of Small-Molecule Allosteric Inhibitors of PfATC as Antimalarials” (Journal of the American Chemical Society, 2022)
